These results are taken from ChEMBL document CHEMBL5653631, “A Potent and Selective ULK1 Inhibitor Suppresses Autophagy and Sensitizes Cancer Cells to Nutrient Stress” (iScience, 2018).

For assay [1], the target named is Fibroblast growth factor receptor 3 (Homo sapiens) (UniProt P22607). Briefly: Inhibition of human recombinant FGFR3 at 15 nM in presence of ATP by radiometric assay relative to control.
In assay [2] the target is eIF-2-alpha kinase GCN2 (Homo sapiens) (UniProt Q9P2K8). Briefly: Inhibition of human recombinant GCN2 at 15 nM in presence of ATP by radiometric assay relative to control.
Assay [3] addresses T1, Rhodopsin kinase GRK1 (Homo sapiens) (UniProt Q15835).
T1 sequence (whole entry): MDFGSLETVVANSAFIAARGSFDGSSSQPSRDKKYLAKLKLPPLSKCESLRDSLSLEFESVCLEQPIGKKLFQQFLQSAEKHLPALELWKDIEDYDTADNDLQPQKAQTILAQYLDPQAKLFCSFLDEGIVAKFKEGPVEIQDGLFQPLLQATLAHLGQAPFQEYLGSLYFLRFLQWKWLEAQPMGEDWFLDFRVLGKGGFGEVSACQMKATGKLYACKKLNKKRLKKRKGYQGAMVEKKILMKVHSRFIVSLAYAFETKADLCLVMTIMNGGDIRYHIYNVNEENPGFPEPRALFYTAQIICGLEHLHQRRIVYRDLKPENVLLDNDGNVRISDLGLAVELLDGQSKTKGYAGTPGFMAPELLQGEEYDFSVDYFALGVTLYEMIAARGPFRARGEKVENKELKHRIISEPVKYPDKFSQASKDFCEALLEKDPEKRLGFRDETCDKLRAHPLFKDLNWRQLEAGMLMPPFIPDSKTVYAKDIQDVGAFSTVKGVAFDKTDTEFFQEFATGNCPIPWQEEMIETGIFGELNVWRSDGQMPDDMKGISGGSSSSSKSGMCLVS
Briefly: Inhibition of human recombinant RHOK at 40 nM related to control ULK1.

Assay [4] addresses Mitogen-activated protein kinase 8 (Homo sapiens) (UniProt P45983). Briefly: Inhibition of human recombinant JNK1 at 40 nM in presence of ATP by radiometric assay relative to control.
The target of assay [5] is Serine/threonine-protein kinase Nek6 (Homo sapiens) (UniProt Q9HC98). Briefly: Inhibition of human recombinant NEK6 at 40 nM in presence of ATP by radiometric assay relative to control.
Assay [6] has as its target T2, Dual specificity tyrosine-phosphorylation-regulated kinase 2 (Homo sapiens) (UniProt Q92630).
T2 sequence (whole entry): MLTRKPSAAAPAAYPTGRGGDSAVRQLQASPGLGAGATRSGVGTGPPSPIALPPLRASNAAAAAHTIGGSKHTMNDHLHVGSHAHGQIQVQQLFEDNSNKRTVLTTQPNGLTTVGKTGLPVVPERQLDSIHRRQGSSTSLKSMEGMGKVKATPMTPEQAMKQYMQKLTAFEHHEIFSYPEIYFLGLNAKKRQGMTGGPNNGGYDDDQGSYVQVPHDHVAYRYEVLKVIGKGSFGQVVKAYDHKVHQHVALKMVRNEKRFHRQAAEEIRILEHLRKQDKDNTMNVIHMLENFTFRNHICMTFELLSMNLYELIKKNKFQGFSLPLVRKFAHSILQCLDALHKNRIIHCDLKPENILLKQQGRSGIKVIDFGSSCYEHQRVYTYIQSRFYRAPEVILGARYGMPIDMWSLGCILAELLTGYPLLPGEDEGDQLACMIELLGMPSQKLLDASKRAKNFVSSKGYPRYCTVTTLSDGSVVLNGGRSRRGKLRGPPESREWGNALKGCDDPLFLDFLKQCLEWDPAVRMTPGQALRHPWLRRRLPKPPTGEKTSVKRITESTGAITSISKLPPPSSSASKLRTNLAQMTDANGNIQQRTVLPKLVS
Briefly: Inhibition of human recombinant DYRK2 at 40 nM related to control ULK1.

For assay [7], the target named is Serine/threonine-protein kinase N1 (Homo sapiens) (UniProt Q16512). Kind of assay: Inhibition of human recombinant PKN1 at 40 nM in presence of ATP by radiometric assay relative to control.
In assay [8] the target is Homeodomain-interacting protein kinase 2 (Homo sapiens) (UniProt Q9H2X6). Briefly: Inhibition of human recombinant HIPK2 at 500 nM in presence of ATP by radiometric assay relative to control.
Assay [9] concerns the target T3, Eukaryotic translation initiation factor 2-alpha kinase 3 (Homo sapiens) (UniProt Q9NZJ5).
T3 sequence (whole entry): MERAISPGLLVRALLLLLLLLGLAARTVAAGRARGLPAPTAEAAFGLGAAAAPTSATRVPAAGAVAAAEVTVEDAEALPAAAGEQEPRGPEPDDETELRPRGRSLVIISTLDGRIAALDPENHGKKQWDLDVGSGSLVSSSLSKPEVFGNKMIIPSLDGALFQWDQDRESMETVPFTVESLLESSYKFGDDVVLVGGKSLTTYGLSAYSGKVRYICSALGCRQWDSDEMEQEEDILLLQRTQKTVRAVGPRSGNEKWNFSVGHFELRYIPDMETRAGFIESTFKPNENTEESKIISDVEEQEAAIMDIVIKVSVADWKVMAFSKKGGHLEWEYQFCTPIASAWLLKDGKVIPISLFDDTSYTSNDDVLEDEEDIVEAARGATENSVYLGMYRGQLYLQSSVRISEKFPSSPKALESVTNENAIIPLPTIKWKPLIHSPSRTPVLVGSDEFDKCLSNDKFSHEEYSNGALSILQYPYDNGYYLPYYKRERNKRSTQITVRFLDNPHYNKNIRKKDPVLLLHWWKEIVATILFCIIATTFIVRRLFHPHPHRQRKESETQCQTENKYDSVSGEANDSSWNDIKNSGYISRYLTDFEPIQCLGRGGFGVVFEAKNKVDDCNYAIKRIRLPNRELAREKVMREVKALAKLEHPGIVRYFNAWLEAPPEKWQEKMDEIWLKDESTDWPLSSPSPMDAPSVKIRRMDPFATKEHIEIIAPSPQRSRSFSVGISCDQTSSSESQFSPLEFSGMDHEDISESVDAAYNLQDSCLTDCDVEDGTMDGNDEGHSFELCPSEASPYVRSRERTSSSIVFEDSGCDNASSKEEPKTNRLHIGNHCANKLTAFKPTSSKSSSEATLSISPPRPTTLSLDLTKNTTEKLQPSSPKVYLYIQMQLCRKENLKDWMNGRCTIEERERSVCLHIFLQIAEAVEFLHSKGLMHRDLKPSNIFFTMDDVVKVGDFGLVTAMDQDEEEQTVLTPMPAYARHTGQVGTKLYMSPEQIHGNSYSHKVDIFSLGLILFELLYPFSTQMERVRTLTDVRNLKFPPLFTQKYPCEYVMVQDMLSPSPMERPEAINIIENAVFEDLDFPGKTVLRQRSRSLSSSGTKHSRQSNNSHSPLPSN
Briefly: Inhibition of human recombinant PEK at 500 nM in presence of ATP by radiometric assay relative to control.

Chain of Fibroblast growth factor receptor 3 (Homo sapiens) (P22607 23-806 limits assumed): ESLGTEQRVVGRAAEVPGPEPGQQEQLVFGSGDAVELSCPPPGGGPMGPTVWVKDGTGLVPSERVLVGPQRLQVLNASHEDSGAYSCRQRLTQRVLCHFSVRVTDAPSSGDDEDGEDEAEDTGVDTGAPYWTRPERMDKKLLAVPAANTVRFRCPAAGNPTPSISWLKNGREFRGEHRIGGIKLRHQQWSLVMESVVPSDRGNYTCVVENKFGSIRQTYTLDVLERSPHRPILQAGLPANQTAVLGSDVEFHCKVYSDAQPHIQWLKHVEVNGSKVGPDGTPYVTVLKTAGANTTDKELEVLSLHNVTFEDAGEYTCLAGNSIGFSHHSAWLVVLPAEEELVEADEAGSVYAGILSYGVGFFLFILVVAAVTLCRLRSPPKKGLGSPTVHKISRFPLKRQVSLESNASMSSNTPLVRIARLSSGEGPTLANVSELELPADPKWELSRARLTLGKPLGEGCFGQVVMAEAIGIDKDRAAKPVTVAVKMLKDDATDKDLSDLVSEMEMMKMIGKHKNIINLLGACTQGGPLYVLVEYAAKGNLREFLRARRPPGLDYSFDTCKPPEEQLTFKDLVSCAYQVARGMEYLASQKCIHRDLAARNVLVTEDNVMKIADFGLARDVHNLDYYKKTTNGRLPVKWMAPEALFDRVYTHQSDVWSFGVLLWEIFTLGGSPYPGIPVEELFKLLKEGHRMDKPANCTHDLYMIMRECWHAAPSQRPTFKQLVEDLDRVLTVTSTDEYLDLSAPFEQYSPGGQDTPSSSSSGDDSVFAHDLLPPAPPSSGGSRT
Chain of Mitogen-activated protein kinase 8 (Homo sapiens) (P45983 whole entry): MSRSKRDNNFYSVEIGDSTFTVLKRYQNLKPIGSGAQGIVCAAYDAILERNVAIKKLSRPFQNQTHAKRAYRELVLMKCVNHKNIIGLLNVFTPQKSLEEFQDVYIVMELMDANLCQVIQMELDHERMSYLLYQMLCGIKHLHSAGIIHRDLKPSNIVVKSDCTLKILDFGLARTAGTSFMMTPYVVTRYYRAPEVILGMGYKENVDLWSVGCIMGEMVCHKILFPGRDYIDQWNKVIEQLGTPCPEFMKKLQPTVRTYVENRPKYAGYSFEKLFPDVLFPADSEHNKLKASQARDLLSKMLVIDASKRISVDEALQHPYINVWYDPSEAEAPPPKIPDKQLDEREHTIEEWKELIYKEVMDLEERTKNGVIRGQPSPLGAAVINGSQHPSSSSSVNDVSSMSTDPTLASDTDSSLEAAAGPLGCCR
Chain of Serine/threonine-protein kinase N1 (Homo sapiens) (Q16512 2-942 limits assumed): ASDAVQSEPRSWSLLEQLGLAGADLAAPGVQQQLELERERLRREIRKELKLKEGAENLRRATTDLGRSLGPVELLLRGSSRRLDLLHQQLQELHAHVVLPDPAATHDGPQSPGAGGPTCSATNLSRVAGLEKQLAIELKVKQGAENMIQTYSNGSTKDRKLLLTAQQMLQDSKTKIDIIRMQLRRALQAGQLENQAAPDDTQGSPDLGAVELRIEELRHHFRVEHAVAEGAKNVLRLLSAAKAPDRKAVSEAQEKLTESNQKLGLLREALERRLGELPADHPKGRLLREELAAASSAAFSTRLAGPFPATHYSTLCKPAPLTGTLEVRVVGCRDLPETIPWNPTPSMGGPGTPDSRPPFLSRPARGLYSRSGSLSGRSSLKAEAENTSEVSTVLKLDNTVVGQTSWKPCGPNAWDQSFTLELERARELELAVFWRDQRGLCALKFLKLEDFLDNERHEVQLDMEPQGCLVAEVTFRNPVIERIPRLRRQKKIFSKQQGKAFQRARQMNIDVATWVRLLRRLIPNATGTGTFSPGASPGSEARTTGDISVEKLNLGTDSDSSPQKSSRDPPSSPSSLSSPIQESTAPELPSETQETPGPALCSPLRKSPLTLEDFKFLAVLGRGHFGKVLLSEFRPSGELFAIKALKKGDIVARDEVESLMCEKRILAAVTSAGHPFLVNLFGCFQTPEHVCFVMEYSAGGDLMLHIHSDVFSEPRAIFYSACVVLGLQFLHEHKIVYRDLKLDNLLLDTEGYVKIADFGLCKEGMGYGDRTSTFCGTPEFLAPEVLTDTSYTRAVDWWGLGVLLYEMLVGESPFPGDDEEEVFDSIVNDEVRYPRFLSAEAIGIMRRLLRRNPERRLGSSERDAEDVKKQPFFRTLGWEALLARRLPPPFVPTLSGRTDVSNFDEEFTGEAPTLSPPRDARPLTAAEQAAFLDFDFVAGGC
Chain of Serine/threonine-protein kinase Nek6 (Homo sapiens) (Q9HC98 whole entry): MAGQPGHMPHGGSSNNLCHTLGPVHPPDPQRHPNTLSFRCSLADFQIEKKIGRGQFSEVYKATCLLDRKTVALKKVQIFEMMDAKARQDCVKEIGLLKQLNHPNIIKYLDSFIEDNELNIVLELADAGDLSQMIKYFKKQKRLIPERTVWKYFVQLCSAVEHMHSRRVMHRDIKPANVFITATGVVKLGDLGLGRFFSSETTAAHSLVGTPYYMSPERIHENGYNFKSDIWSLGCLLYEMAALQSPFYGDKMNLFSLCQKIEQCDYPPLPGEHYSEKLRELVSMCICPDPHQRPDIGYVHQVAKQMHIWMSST
Chain of Homeodomain-interacting protein kinase 2 (Homo sapiens) (Q9H2X6 whole entry, looked up): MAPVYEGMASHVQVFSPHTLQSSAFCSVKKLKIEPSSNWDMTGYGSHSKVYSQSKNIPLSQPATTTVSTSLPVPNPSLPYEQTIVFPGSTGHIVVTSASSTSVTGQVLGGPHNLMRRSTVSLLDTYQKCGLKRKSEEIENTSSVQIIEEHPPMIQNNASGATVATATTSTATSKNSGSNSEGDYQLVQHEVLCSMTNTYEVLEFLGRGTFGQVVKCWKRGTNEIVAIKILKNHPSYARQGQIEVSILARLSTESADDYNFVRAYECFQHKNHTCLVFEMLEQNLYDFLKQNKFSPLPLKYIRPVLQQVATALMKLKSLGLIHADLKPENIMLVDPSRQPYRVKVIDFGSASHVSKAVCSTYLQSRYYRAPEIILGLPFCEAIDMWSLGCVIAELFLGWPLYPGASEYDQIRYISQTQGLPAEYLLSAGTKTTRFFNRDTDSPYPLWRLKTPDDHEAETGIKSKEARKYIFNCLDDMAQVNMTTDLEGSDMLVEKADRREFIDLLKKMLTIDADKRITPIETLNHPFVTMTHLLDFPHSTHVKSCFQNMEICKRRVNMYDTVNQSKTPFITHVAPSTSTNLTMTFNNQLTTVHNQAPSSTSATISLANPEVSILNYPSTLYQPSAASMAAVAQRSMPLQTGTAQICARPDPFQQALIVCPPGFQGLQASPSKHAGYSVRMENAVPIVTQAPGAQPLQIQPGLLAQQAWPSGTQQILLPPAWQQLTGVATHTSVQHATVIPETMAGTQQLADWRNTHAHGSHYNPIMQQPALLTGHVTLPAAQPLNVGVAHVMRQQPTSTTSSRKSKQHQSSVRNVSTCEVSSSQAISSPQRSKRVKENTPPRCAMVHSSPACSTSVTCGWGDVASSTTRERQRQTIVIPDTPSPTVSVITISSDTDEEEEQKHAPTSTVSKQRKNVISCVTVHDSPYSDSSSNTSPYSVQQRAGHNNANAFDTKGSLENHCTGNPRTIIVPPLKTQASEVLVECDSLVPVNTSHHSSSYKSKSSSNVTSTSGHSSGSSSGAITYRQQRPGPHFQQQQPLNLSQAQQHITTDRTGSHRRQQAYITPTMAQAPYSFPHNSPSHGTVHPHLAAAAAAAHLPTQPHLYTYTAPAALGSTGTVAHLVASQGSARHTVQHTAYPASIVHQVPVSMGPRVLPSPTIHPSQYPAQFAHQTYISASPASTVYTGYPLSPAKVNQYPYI

As usually defined, the inhibition is the relative decrease from the control value, in per cent. Regarding `CC(C)[C@H](NC(=O)c1cc(-c2cnn3cc(-c4ccc(OCCN5CCCCC5)cc4)cnc23)cs1)C(F)(F)F`, the inhibition was determined as 0% in [1] and 8% in assay [2].
For `O=C(N[C@@H](C1CC1)C(F)(F)F)c1cc(-c2cnn3cc(-c4ccc(F)cc4)cnc23)cs1`, the figures for the fold change (FC) in [3] and in assay [6] were 0.01 and 0.15, respectively. Moreover, the inhibition in assay [4], in assay [5] and in assay [7] was 0% in each case.
On to `CNC(=O)c1ccccc1Oc1nc(Nc2cc(OC)c(OC)c(OC)c2)ncc1Br`, for which the inhibition in assay [8] and in [9] was 0% in each case.
